Our source for the IC50 values is patent publication US9796719B2, “Compounds and pharmaceutical compositions thereof for the treatment of inflammatory disorders” (GALAPAGOS NV, priority 2013, dated 2017).

Where only a bound is given, the exact number is not on record here.

In this assay the target is hENPP2 (UniProtKB/SwissProt Sequence ref Q13822) (Homo sapiens (Human), UniProt Q13822). Kind of assay: LPC hENPP2 assay (choline release, LPC as substrate). Type of assay: biochemical. A digest of the protocol:
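Detection is coupled: choline oxidase produces peroxide, which HRP uses to form quinoneimine dye from TOOS and 4-aminoantipyrine, read at 555 nm. The reaction is stopped with 20 mM EGTA in the developer mix, then incubated 30 min at room temperature; inhibition lowers signal.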
`CCc1nc2ccc(N3CCC(CN)CC3)nn2c1N(C)c1nc(-c2ccc(F)cc2)cs1` [Cpd 104, N-(6-(4-(aminomethyl)piperidin-1-yl)-2-ethylimidazo[1,2-b]pyridazin-3-yl)-4-(4-fluorophenyl)-N-methylthiazol-2-amine] showed a concentration for half-maximal inhibition (IC50) of more than 1000 nM.
`CCc1nc2cnc(N3CCN(CC(=O)N4CC(F)(F)C4)CC3)cn2c1N(C)c1nc(-c2ccc(F)cc2)c(C#N)s1` [Cpd 3, 2-((6-(4-(2-(3,3-difluoroazetidin-1-yl)-2-oxoethyl)piperazin-1-yl)-2-ethylimidazo[1,2-a]pyrazin-3-yl)(methyl)amino)-4-(4-fluorophenyl) thiazole-5-carbonitrile] showed an IC50 of more than 1000 nM.
In the case of `CCc1nc2ccc(N3CC(NCC(=O)N(C)C)C3)nn2c1N(C)c1nc(-c2ccc(F)cc2)cs1` [Cpd 156, 2-(1-(2-ethyl-3-((4-(4-fluorophenyl)thiazol-2-yl)(methyl)amino)imidazo[1,2-b]pyridazin-6-yl)azetidin-3-ylamino)-N,N-dimethylacetamide] it was 500 to 1000 nM; in that of `CCc1nc2ccc(N3CCN(CC(=O)N4CCCC4C)CC3)nn2c1N(C)c1nc(-c2ccc(F)cc2)cs1` (centres unmarked) [Cpd 28, 2-(4-(2-ethyl-3-((4-(4-fluorophenyl)thiazol-2-yl)(methyl)amino)imidazo[1,2-b]pyridazin-6-yl)piperazin-1-yl)-1-(2-methylpyrrolidin-1-yl)ethanone], 100 to 500 nM; in that of `CCc1nc2cnc(N3CCN(CC(=O)N4CC(O)C4)CC3)cn2c1N(C)c1nccc(-c2ccc(F)cc2C#N)n1` [Cpd 18, 2-(2-((2-ethyl-6-(4-(2-(3-hydroxyazetidin-1-yl)-2-oxoethyl)piperazin-1-yl)imidazo[1,2-a]pyrazin-3-yl)(methyl)amino)pyrimidin-4-yl)-5-fluorobenzonitrile], more than 1000 nM.
Compound `CCc1nc2ccc(N3CCCC(N4CCC(O)CC4)C3)nn2c1N(C)c1nc(-c2ccc(F)cc2)cs1` (centres unmarked) [Cpd 112, l′-(2-ethyl-3-((4-(4-fluorophenyl)thiazol-2-yl)(methyl)amino)imidazo[1,2-b]pyridazin-6-yl)-1,3′-bipiperidin-4-ol] yielded an IC50 of more than 1000 nM.
For the compound `CCc1nc2ccc(C3CCN(CC(=O)NC)CC3)nn2c1N(C)c1nc(-c2ccc(F)cc2C#N)c(C)s1` [Cpd 211, 2-(4-(3-((4-(2-cyano-4-fluorophenyl)-5-methylthiazol-2-yl)(methyl)amino)-2-ethylimidazo[1,2-b]pyridazin-6-yl)piperidin-l-yl)-N-methylacetamide], the IC50 is more than 1000 nM.
Under `CCc1nc2ccc(N3CCN(S(C)(=O)=O)[C@H](CO)C3)nn2c1N(C)c1nc(-c2ccc(F)cc2)c(C#N)s1` [Cpd 161, (S)-2-((2-ethyl-6-(3-(hydroxymethyl)-4-(methylsulfonyl)piperazin-1-yl)imidazo[1,2-b]pyridazin-3-yl)(methyl)amino)-4-(4-fluorophenyl) thiazole-5-carbonitrile] stands 100 to 500 nM.
In the case of `CCc1nc2ccc(N3CC(N)C3)nn2c1N(C)c1nc(-c2ccc(F)cc2)c(C#N)s1` [Cpd 188, 2-((6-(3-aminoazetidin-1-yl)-2-ethylimidazo[1,2-b]pyridazin-3-yl)(methyl)amino)-4-(4-fluorophenyl) thiazole-5-carbonitrile] it was 0.01 to 100 nM; in that of `CCc1nc2ccc(N3CC(NCC(=O)N4CC(O)C4)C3)nn2c1N(C)c1nc(-c2ccc(F)cc2)cs1` [Cpd 155, 2-(1-(2-ethyl-3-((4-(4-fluorophenyl)thiazol-2-yl)(methyl)amino)imidazo[1,2-b]pyridazin-6-yl)azetidin-3-ylamino)-1-(3-hydroxyazetidin-1-yl)ethanone], 100 to 500 nM; in that of `CCc1nc2ccc(N3CCN(C4CCOCC4)CC3)nn2c1N(C)c1nc(-c2ccc(F)cc2)cs1` [Cpd 39, N-(2-ethyl-6-(4-(tetrahydro-2H-pyran-4-yl)piperazin-1-yl)imidazo[1,2-b]pyridazin-3-yl)-4-(4-fluorophenyl)-N-methylthiazol-2-amine], more than 1000 nM.

As usually defined, the IC50 is the concentration that inhibits the measured activity by half.
